Assay results reported in patent publication US7704995B2 (Exelixis, Inc., priority 2003, dated 2010).

Biological target: T1, Chk1 (Homo sapiens, UniProt O14757)
T1 construct: purchased Upstate Biotechnology
T1 sequence (O14757 1-476): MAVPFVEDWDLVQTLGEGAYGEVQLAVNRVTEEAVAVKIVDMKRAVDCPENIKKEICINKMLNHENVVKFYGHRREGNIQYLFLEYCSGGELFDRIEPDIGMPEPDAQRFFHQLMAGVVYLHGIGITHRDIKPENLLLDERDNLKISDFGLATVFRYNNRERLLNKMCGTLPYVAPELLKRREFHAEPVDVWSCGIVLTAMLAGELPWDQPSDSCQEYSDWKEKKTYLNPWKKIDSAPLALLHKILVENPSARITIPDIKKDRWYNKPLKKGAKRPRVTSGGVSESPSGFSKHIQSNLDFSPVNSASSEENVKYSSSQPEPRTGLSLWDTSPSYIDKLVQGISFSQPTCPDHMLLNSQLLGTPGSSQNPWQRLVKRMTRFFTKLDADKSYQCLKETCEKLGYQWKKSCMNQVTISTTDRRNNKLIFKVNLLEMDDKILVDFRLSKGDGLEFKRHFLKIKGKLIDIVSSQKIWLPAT
Assay: Chk1 kinase assay: incorporation of γ-33P ATP into immobilized myelin basic protein
Type: biochemical
Settings: Table 11, Chk1 only; class symbols A-D; read-out: Chk1 IC50
Procedure, shortened: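 Radiometric filter-free format: Chk1 10 nM, 10 μM ATP; Chk2 20 nM, 30 μM ATP; γ-33P ATP tracer; immobilized MBP substrate; Hepes pH 7.6, 10 mM MgCl2, 1 mM DTT; 1 h RT; 1% DMSO. Scintillation counting of washed plates. IC50/Ki from curve fit.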

SMILES: Nc1ncc(-c2cccc(C(=O)NCc3ccccc3)c2)nc1C(=O)N[C@H]1CCCNC1 [Example 1040, 3-amino-6-{3-[({[phenyl]methyl}amino)carbonyl]phenyl}-N-[(3S)-piperidin-3-yl]pyrazine-2-carboxamide]
- IC50: < 0.05 µM

SMILES: COc1cc(CNC(=O)c2cccc(-c3cnc(N)c(C(=O)N[C@H]4CCCNC4)n3)c2)cc(OC)c1 [Example 1041, 3-amino-6-{3-[({[3,5-bis(methyloxy)phenyl]methyl}amino)carbonyl]phenyl}-N-[(3S)-piperidin-3-yl]pyrazine-2-carboxamide]
- IC50: < 0.05 µM

SMILES: COc1ccc(CNC(=O)c2cccc(-c3cnc(N)c(C(=O)N[C@H]4CCCNC4)n3)c2)cc1OC [Example 1042, 3-amino-6-{3-[({[3,4-bis(methyloxy)phenyl]methyl}amino)carbonyl]phenyl}-N-[(3S)-piperidin-3-yl]pyrazine-2-carboxamide]
- IC50: < 0.05 µM
